This note sets out measurements from patent publication US4014875A, “Process of making di or tribromomethanesulfonamides” (The Dow Chemical Company, priority 1975, dated 1977).

Values after ≈ are worked out from the molar mass of the structure shown.

Holding throughout (assay type): cell-based
The test system of assay [1] is Trichoderm Sp. Madison P-42. As to the kind of experiment: agar dilution test, growth inhibition of Trichoderm Sp. Madison P-42. Conditions: Ts = Trichoderm Sp. Madison P-42; 100% growth inhibition (kills); read-out: Minimum Growth Inhibitory Concentration. As for the experimental part:
(§1) In representative operations, compounds of the present invention were tested for their activity as antimicrobials using conventional agar dilution tests. The following Table presents results, expressed as concentration of toxicant in parts per million to achieve 100% growth inhibition (kills) of the indicated organisms.

Assay [2] has as its system M. phlei. As to the kind of experiment: agar dilution test, growth inhibition of M. phlei. Conditions: Mycolicibacterium phlei; Mp = M. phlei; 100% growth inhibition (kills); read-out: Minimum Growth Inhibitory Concentration. As for the experimental part: as §1
On the technique in general: Agar dilution tests growth on a series of plates holding different concentrations.

Assay [3] has as its system T, mentagrophytes. As to the kind of experiment: agar dilution test, growth inhibition of T, mentagrophytes. Conditions: Tm = T, 100% growth inhibition (kills), read-out: Minimum Growth Inhibitory Concentration. On the procedure:
as §1

The test system of assay [4] is P. aeruginosa. As to the kind of experiment: agar dilution test, growth inhibition of P. aeruginosa. Particulars: Pseudomonas aeruginosa; Pa = P. aeruginosa; 100% growth inhibition (kills); read-out: Minimum Growth Inhibitory Concentration. As for the experimental part: as §1
Assay [5] concerns Cephaloascus fragans. As to the kind of experiment: agar dilution test, growth inhibition of Cephaloascus fragans. Conditions: Cf = Cephaloascus fragans; 100% growth inhibition (kills); read-out: Minimum Growth Inhibitory Concentration. On the procedure:
as §1

Assay [6] deals with B. subtilis. As to the kind of experiment: agar dilution test, growth inhibition of B. subtilis. Details: key to Minimum Growth Inhibitory Concentration: *: 50% control at 500 ppm. Particulars: Bs = B. subtilis, 100% growth inhibition (kills); for MIC: Bacillus subtilis, read-out: Minimum Growth Inhibitory Concentration. On the procedure:
as §1

The subject of assay [7] is Ceratocystis ips. In words: agar dilution test, growth inhibition of Ceratocystis ips. Conditions: Ci = Ceratocystis ips; 100% growth inhibition (kills); read-out: Minimum Growth Inhibitory Concentration. As for the experimental part:
as §1

The subject of assay [8] is C. albicans. As to the kind of experiment: agar dilution test, growth inhibition of C. albicans. Particulars: Candida albicans; Ca = C. albicans; 100% growth inhibition (kills); read-out: Minimum Growth Inhibitory Concentration. As for the experimental part:
as §1

Assay [9] relates to C. pelliculosa. As to the kind of experiment: agar dilution test, growth inhibition of C. pelliculosa. Particulars: Hansenula anomala; Cp = C. pelliculosa; 100% growth inhibition (kills); read-out: Minimum Growth Inhibitory Concentration. As for the experimental part:
as §1

Assay [10] relates to R. nigricans. In words: agar dilution test, growth inhibition of R. nigricans. Conditions: Rhizopus stolonifer; Rn = R. nigricans; 100% growth inhibition (kills); read-out: Minimum Growth Inhibitory Concentration. As for the experimental part: as §1
Assay [11] concerns S. aureus. As to the kind of experiment: agar dilution test, growth inhibition of S. aureus. Conditions: Staphylococcus aureus; Sa = S. aureus; 100% growth inhibition (kills); read-out: Minimum Growth Inhibitory Concentration. As for the experimental part:
as §1

The subject of assay [12] is A. terreus. As to the kind of experiment: agar dilution test, growth inhibition of A. terreus. Particulars: Aspergillus terreus; At = A. terreus; 100% growth inhibition (kills); read-out: Minimum Growth Inhibitory Concentration. On the procedure: as §1
Assay [13] concerns P. pullulans. In words: agar dilution test, growth inhibition of P. pullulans. Particulars: Pp = P. pullulans; 100% growth inhibition (kills); read-out: Minimum Growth Inhibitory Concentration. As for the experimental part: as §1
Assay [14] has as its system S. typhosa. In words: agar dilution test, growth inhibition of S. typhosa. Conditions: St = S. typhosa; 100% growth inhibition (kills); read-out: Minimum Growth Inhibitory Concentration. As for the experimental part: as §1

Consider `CC1CN(S(=O)(=O)C(Br)(Br)Br)CC(C)O1` (stereo not shown) [1 (a), 2,6-Dimethyl-4-((tribromomethyl)sulfonyl)morpholine], for which the MIC in [1], in assay [2], in assay [3], in assay [4], in assay [5] and in assay [6] was 100 µg/mL (≈ 233 µM) in each case. Further, the MIC in assay [7] turned out to be 100 µg/mL (≈ 233 µM); in assay [8] it was 100 µg/mL (≈ 233 µM); in assay [9], 100 µg/mL (≈ 233 µM); in assay [10], 100 µg/mL (≈ 233 µM); in assay [11] it was 500 µg/mL (≈ 1160 µM); in assay [12], 10 µg/mL (≈ 23.3 µM). In [13], the MIC is 100 µg/mL (≈ 233 µM).
Consider `CC1CN(S(=O)(=O)C(Br)Br)CC(C)O1` (stereo not shown) [1 (b), 2,6-Dimethyl-4-((dibromomethyl)sulfonyl)morpholine], for which the MIC in assay [1] was greater than 500 µg/mL; in assay [2], greater than 500 µg/mL; in assay [3] it was 500 µg/mL (≈ 1420 µM); in assay [4] it was greater than 500 µg/mL; in assay [5] it was 500 µg/mL (≈ 1420 µM); in [7], greater than 500 µg/mL. Besides, the MIC in [14] was greater than 500 µg/mL; in assay [8], 500 µg/mL (≈ 1420 µM); in assay [9], 500 µg/mL (≈ 1420 µM); in assay [10], 500 µg/mL (≈ 1420 µM); in [11], greater than 500 µg/mL; in [12], 500 µg/mL (≈ 1420 µM). Moreover, the MIC in assay [13] was 500 µg/mL (≈ 1420 µM). Also, the “Minimum Growth Inhibitory Concentration” value in [6] is recorded as “*”.
`O=S(=O)(N1CCOCC1)C(Br)(Br)Br` [2 (b)]: the MIC in assay [1], in [2], in [3], in [4], in [5] and in [6] was 100 µg/mL (≈ 249 µM) in each case. Further, the MIC in assay [7] came to 100 µg/mL (≈ 249 µM); in assay [8], 100 µg/mL (≈ 249 µM); in assay [9] it was 100 µg/mL (≈ 249 µM); in assay [10] it was 100 µg/mL (≈ 249 µM); in assay [11], 500 µg/mL (≈ 1240 µM); in assay [12] it was 100 µg/mL (≈ 249 µM). In addition, the MIC in [13] worked out at 100 µg/mL (≈ 249 µM).
